From ChEMBL document CHEMBL4017528, “Fragment-Based Discovery and Optimization of Enzyme Inhibitors by Docking of Commercial Chemical Space” (J Med Chem, 2017)

What was measured:
[1] = target: Oxidized purine nucleoside triphosphate hydrolase (Homo sapiens, UniProt P36639); assay: Inhibition of human recombinant His-tagged MTH1 expressed in Escherichia coli BL21 using dGTP as substrate after 15 mins by malachite green reagent-based assay
HeLa = assay: Cytotoxicity against human HeLa cells after 72 hrs by WST-8 assay; assay type: functional, cell-based

| IC50 [1] [µM] | SMILES | EC50 (HeLa) [µM] |
| --- | --- | --- |
| 0.17 | Nc1nc(SCCc2ccccc2)c2nc[nH]c2n1 | – |
| 5.6 | Cc1nc(N)nc2ccccc12 | – |
| – | Nc1nc(NCCc2ccccc2)c2nc[nH]c2n1 | 35 |
| 24 | CSc1nc2c(N)ncnc2[nH]1 | – |
